Data on one molecule can be found in publication PMC4981864, “Novel pH-Sensitive Cyclic Peptides” (Scientific Reports, 2016).

Series [1] is described as follows: Steady-state tryptophan fluorescence and CD with and without POPC liposomes. Format: physicochemical. How it is done:
(§1) Large unilamellar vesicles (LUVs) were prepared by extrusion. POPC, 1-palmitoyl-2-oleoyl-sn-glycero-3-phosphocholine (Avanti Polar Lipids), or a mixture of POPC with 0.5% of 18:1 NBD-PE, 1,2-dioleoyl-sn-glycero-3-phosphoethanolamine-N-7-nitro-2-1,3-benzoxadiazol-4-yl ammonium salt (Avanti Polar Lipids) were dissolved in chloroform, desolvated on a rotary evaporator, and dried under high vacuum for several hours. The phospholipid film was then rehydrated in 10 mM phosphate buffer pH 8.0, vortexed until the lipid bilayer was completely dissolved, and repeatedly (15–21 times) extruded through the membranes with 50 nm pore sizes to obtain LUVs.
Freshly prepared peptides and POPC vesicles were mixed to have 5 μM of a peptide and 1.25 mM of lipids in the final solution. Steady-state fluorescence measurements were carried out on a PC1 spectrofluorometer (ISS, Inc.) under temperature control at 25 °C. Tryptophan fluorescence was excited at 280 nm (there is no Phe or Tyr in the peptides) and recorded with the excitation and emission slits set at 1 nm. The polarizers in the excitation and emission paths were set at the “magic” angle (54.7° from the vertical orientation) and vertically (0°), respectively. Steady state CD measurements were carried out in MOS 450 spectropolarimeter (Bio-Logic, Inc.) with the same concentrations of peptide and lipids used in fluorescence measurements.

The test system of the next series is 4T1 mammary tumors. As to the kind of experiment: Ex vivo fluorescence imaging of tumor and organs after IV Alexa546-peptides. Format: in vivo. As to conditions: 24 hours after IV, three mice. How it is done:
The murine 4T1 xenograft model, which closely mimics stage IV of human breast cancer, was used in our study. Small 4T1 tumor (tumor volume <150 mm^3) generates a significant level of lactate and serves as a good model of an aggressive, acidic tumor[35]. All peptides were covalently conjugated with Alexa546-malemide. […] The mean fluorescence of tumor, muscle, kidney, liver and lungs were recorded and analyzed (Fig. 6).
All animal studies were conducted according to the animal protocol AN04-12-011 approved by the Institutional Animal Care and Use Committee at the University of Rhode Island, in compliance with the principles and procedures outlined by NIH for the Care and Use of Animals. 4T1 breast tumors were established by subcutaneous injection of 4T1 cells (8 × 10^5 cells/0.1 mL/flank) in the right flank of adult female BALB/c mice (about 19–22 g weight) obtained from Harlan Laboratories. When tumors reached about 6 mm in diameter single tail vein injections of 100 μl of 40 μM Alexa546-peptides were performed. […] Mean fluorescence intensity of tumor and organs was calculated using Kodak software.

The nature of series [2]: Calculated weak-acid distribution Ci/Ce between inner and outer leaflets. Particulars: pKa 5.7. An excerpt:
Thus, cyclic peptides could be considered as a weak acid with multiple protonatable groups, which can diffuse across the bilayer. For weak acids, the intracellular-extracellular distribution, Ci/Ce, should be calculated according to the following equation: […]
where pHi and pHe are the intracellular and extracellular pH values, respectively. Since the cyclic peptides have affinity to the membrane, we consider Ci and Ce as the concentrations of the peptide on inner and outer leaflets, respectively. […] However, the same ratio increases to 4.5, 7.8, and 10.9 if extracellular pHe would be 6.5, 6.2 and 6.0, respectively. We assume that the symmetrical WE peptides have the same mechanism of action as an asymmetric peptide, however they have less favorable localization of Trp and Glu residues, which reduces their ability to accumulate at the inner leaflet of bilayer of cellular membranes and target acidic tumors. Leu-containing peptides are less advantageous due to their reduced affinity to the headgroup part of the bilayer and high affinity to the center of the membrane.

Series [3] can be described thus: Lipid titration, peptide-membrane partition model, Gibbs free energy. Format: physicochemical. Particulars: 5 μM peptide, varying 50 nm POPC liposomes. How it is done:
Samples containing 5 μM of peptides at pH 8 and pH 3, and varying concentrations of lipids of the 50 nm POPC liposomes were prepared. The fluorescence spectra of peptides in all samples were measured at 280 nm excitation at 25 °C. A series of POPC blanks with the same concentrations of lipids were measured with the same instrument settings and were subtracted from the corresponding fluorescence spectra of peptides in the presence of POPC. The areas under the emission spectra were calculated and the values were normalized to the first point (the emission of the peptide in the absence of POPC). The titration data were fitted by the peptide-membrane partition model to calculate the mole-fraction partition coefficient, K
where F0 is the fluorescence intensity at zero concentration of lipids (in our case F0 = 1); ΔF if the fluorescence increase in the result of the titration with lipids; Clipids is the concentration of lipids; W is the molar concentration of water (55.3 M). Nonlinear least squares curve fitting procedure using Levenberg-Marquardt algorithm was implemented in Origin 8.5.0 SR1. The Gibbs free energy (ΔG) was calculated according to the equation: […]
where R is the gas constant and T is the temperature in Kelvin.

Series [4] is classed as physicochemical. As to conditions: pH 8. The protocol: as §1
pH-dependent partitioning of the peptides into a lipid bilayer of the membrane was investigated by the shift of the position of the fluorescence spectral maximum for the peptides in the presence POPC liposomes induced by a drop of pH from 8 to 2.5 by the addition of HCl. The peptides were incubated overnight with 50-nm POPC liposomes (final concentration of the peptides and POPC in solution was 5 μM and 1 mM, respectively), and pH decrease was achieved by the addition of aliquots of 4, 2, 1 and 0.1 M HCl. pH was measured by micro-electrode probe (Thermo Electron Corporation, Orion Ross Micro pH electrode). Fluorescence spectra were recorded at each pH value. The spectra were analyzed by the decomposition algorithms using on-line PFAST toolkit[47] (Protein Fluorescence and Structural Toolkit: http://pfast.phys.uri.edu/) to establish the position of the emission maximum. Finally, the positions of the fluorescence spectral maxima (λmax) were plotted versus pH, and the Henderson–Hasselbalch equation was used to fit the data (using Origin 8.5 software): […]
where [drawing 3] and [drawing 4] are the beginning and the end of the transition, respectively, and pKa – is the midpoint of the transition.

Each structure is given as a SMILES string.

Consider `O=C(O)CC[C@@H]1NC(=O)[C@H](CS)NC(=O)[C@H](Cc2c[nH]c3ccccc23)NC(=O)[C@H](Cc2c[nH]c3ccccc23)NC(=O)[C@H](Cc2c[nH]c3ccccc23)NC(=O)[C@H](Cc2c[nH]c3ccccc23)NC(=O)[C@H](Cc2c[nH]c3ccccc23)NC(=O)[C@H](CCC(=O)O)NC(=O)[C@H](CCC(=O)O)NC(=O)[C@H](CCC(=O)O)NC1=O` [c[E4W5C]], for which the “maximum position of the fluorescence spectrum λmax, Pep, pH8” value in series [1] (peptide in phosphate buffer pH 8, no liposomes, 5 μM peptide, excitation 280 nm, 25 °C) stood at 350.6±0.2 nm. For the same molecule, in series [1] (with POPC liposomes pH 3, 5 μM peptide, 1.25 mM lipids, excitation 280 nm, 25 °C), the “maximum position of the fluorescence spectrum λmax, Pep-PC, pH3” value is on record as 340.2±0.4 nm. Further, the “S, normalized area under the spectra, Pep-PC, pH3” value in series [1] (with POPC liposomes pH 3, normalized on area for peptide at pH 8 in absence of POPC) was 2.4±0.5. Also, the “maximum position of the fluorescence spectrum λmax, Pep-PC, pH8” value in series [1] (with POPC liposomes pH 8, 5 μM peptide, 1.25 mM lipids, excitation 280 nm, 25 °C) is reported as 342.8±0.4 nm. The “S, normalized area under the spectra, Pep-PC, pH8” value in series [1] (with POPC liposomes pH 8, normalized on area for peptide at pH 8 in absence of POPC) is on record as 2.4±0.3. In addition, the Tumor/Muscle ratio with 4T1 mammary tumors stood at 5.6. Also, the “concentration ratio at the inner and outer leaflets, Ci/Ce” value is given as 10.9 in series [2] (pHe 6.0, pHi = 7.2); 7.8 in series [2] (pHe 6.2, pHi = 7.2); 4.5 in series [2] (pHe 6.5, pHi = 7.2); 0.6 in series [2] (pHe = 7.4, pHi = 7.2). For the same molecule, the “additional free energy released at low pH” value in series [3] (pH 3 versus pH 8, 25 °C) is given as “about 0.7 kcal/mol”. For the same molecule, the “free energy released on partitioning into the lipid bilayer at pH 8” value in series [3] (pH 8, 25 °C, partition model) is listed as “About 7.3 kcal/mol”. The “apparent pK (pKa) of peptide's partitioning into the bilayer” value in series [4] was 5.7.
